First: O=C(NCc1ccc(O)cc1)c1cccnc1Oc1cccnc1 [Example 104, N-(4-Hydroxy-benzyl)-2-(pyridin-3yloxy)-nicotinamide]
Second: NS(=O)(=O)c1ccc(CNC(=O)c2cccnc2Oc2cccnc2)cc1 [Example 178, 2-(Pyridin-3-yloxy)-N-(4-sulfamoyl-benzyl)-nicotinamide]
The melting point of the first is lower: 156 to 158 °C for the first, 196 to 197 °C for the second.

First: O=C1Cc2cc(CNC(=O)c3cccnc3Oc3cccc([N+](=O)[O-])c3)ccc2N1 [Example 106, 2-(3-Nitro-phenoxy)-N-(2-oxo-2,3-dihydro-1H-indol-5-ylmethyl)-nicotinamide]
Second: N#Cc1cccc(Oc2ncccc2C(=O)NCc2ccc3c(c2)CC(=O)N3)c1 [Example 112, 2-(3-Cyano-phenoxy)-N-(2-oxo-2,3-dihydro-1H-indol-5-ylmethyl)-nicotinamide]
The melting point of the first is lower: 190 to 192 °C for the first, 197 to 199 °C for the second.

First: CC(C)(O)c1ccc(CNC(=O)c2cccnc2Oc2cccc([N+](=O)[O-])c2)cc1 [Example 107, N-[4-(1-Hydroxy-1-methyl-ethyl)-benzyl]-2-(3-nitro-phenoxy)-nicotinamide]
Second: CC(C)(O)c1ccc(CNC(=O)c2cccnc2Oc2cccc(C#N)c2)cc1 [Example 113, 2-(3-Cyano-phenoxy)-N-[4-(1-hydroxy-1-methyl-ethyl)-benzyl]-nicotinamide]
The melting point of the first is lower: 43 to 45 °C for the first, 97 to 99 °C for the second.

First: Cc1cc(CNC(=O)c2cccnc2Oc2cccc([N+](=O)[O-])c2)cc(C)c1O [Example 108, N-(4-Hydroxy-3,5-dimethyl-benzyl)-2-(3-nitro-phenoxy)-nicotinamide]
Second: O=C(NCc1ccc(Cl)s1)c1cccnc1Oc1cccc([N+](=O)[O-])c1 [Example 109, N-(5-Chloro-thiophen-2-ylmethyl)-2-(3-nitro-phenoxy)-nicotinamide]
The melting point of the first is higher: 128 to 130 °C for the first, 115 to 117 °C for the second.

Compared with `N#Cc1cccc(Oc2ncccc2C(=O)NCc2ccccc2Cl)c1` [Example 110, N-(2-Chloro-benzyl)-2-(3-cyano-phenoxy)-nicotinamide], `Nc1cccc(Oc2ncccc2C(=O)NCc2ccccc2Cl)c1` [Example 144, 2-(3-Amino-phenoxy)-N-(2-chloro-benzyl)-nicotinamide] is lower in melting point: 135 to 137 °C for the first, 101 to 103 °C for the second.

First: N#Cc1cccc(Oc2ncccc2C(=O)NCc2ccc(Cl)s2)c1 [Example 111, N-(5-Chloro-thiophen-2-ylmethyl)-2-(3-cyano-phenoxy)-nicotinamide]
Second: CC(C)(O)c1ccc(CNC(=O)c2cccnc2Oc2cccc(C#N)c2)c(Cl)c1 [Example 116, N-[2-Chloro-4-(1-hydroxy-1-methyl-ethyl)-benzyl]-2-(3-cyano-phenoxy)-nicotinamide]
The melting point of the first is higher: 145 to 147 °C for the first, 121 to 123 °C for the second.

First: CCc1n[nH]c2ccc(C(NC(=O)c3cccnc3Oc3cccc(C#N)c3)C3CCCCC3)cc12 (centres unmarked) [Example 117, 2-(3-Cyano-phenoxy)-N-(-cyclohexyl-3-ethyl-1H-indazol-5-ylmethyl)-nicotinamide]
Second: O=C(NCc1cccc2[nH]ccc12)c1cccnc1Oc1cccnc1 [Example 180, N-(1H-Indol-4-ylmethyl)-2-(pyridin-3yloxy)-nicotinamide]
The melting point of the first is lower: 56 to 58 °C for the first, 134 to 135 °C for the second.

Compared with `N#Cc1ccc(Oc2ncccc2C(=O)NCc2ccccc2Cl)cc1` [Example 119, N-(2-Chloro-benzyl)-2-(4-cyano-phenoxy)-nicotinamide], `O=C(Cc1ccccc1Cl)Nc1cccnc1Oc1ccc(F)cc1` [Example 136, 2-(2-Chloro-phenyl)-N-[2-(4-fluoro-phenoxy)-pyridin-3-yl]-acetamide] is lower in melting point: 112 to 114 °C for the first, 73 to 75 °C for the second.

First: CC(=O)Nc1ccc(CNC(=O)c2cccnc2Oc2ccc(F)cc2)cc1 [Example 124, N-(4-Acetylamino-benzyl)-2-(4-fluoro-phenoxy)-nicotinamide]
Second: CS(=O)(=O)Nc1ccc(CNC(=O)c2cccnc2Oc2ccc(F)cc2)cc1 [Example 131, 2-(4-Fluoro-phenoxy)-N-(4-methanesulfonylamino-benzyl)-nicotinamide]
The melting point of the first is higher: 128 to 130 °C for the first, 107 to 109 °C for the second.

Compared with `CC(=O)Nc1cccc(Oc2ncccc2C(=O)NCc2ccc(C(C)(C)O)cc2)c1` [Example 126, 2(3-Acetylamino-phenoxy)-N-[4-(1-hydroxy-1-methyl-ethyl)-benzyl]-nicotinamide], `CC(C)(C)C(=O)Oc1ccc(CNC(=O)c2cccnc2Oc2ccc(F)cc2)cc1` [Example 130, 2,2-Dimethyl-propionic acid 4-({[2-(4-fluoro-phenoxy)-pyridine-3-carbonyl]-amino}-methyl)-phenyl ester] is lower in melting point: 155 to 157 °C for the first, 91 to 93 °C for the second.

Compared with `O=C(NCC(O)c1ccccc1)c1cccnc1Oc1cccc(Cl)c1` (centres unmarked) [Example 133, 2-(3-Chloro-phenoxy)-N-(2-hydroxy-2-phenyl-ethyl)-nicotinamide], `COc1ccccc1NC(=O)Nc1cccc(Oc2ncccc2C(=O)NCc2ccccc2Cl)c1` [Example 138, N-(2-Chloro-benzyl)-2-(3-[3-(2-methoxy-phenyl)-ureido]-phenoxy}-nicotinamide] is higher in melting point: 118 to 119 °C for the first, 180 to 182 °C for the second.

First: CC(=O)c1ccc(CC(=O)Nc2cccnc2Oc2ccc(F)cc2)cc1 [Example 137, 2-(4-Acetyl-phenyl)-N-[2-(4-fluoro-phenoxy)-pyridin-3-yl]-acetamide]
Second: O=C(O)c1cc2cc(CNC(=O)c3cccnc3Oc3ccc(F)cc3)ccc2[nH]1 [Example 165, 5-({[2-(4-Fluoro-phenoxy)-pyridine-3-carbonyl]-amino}-methyl)-1H-indole-2-carboxylic acid]
The melting point of the first is lower: 118 to 120 °C for the first, 236 to 238 °C for the second.

First: O=C(Nc1cccc(Oc2ncccc2C(=O)NCc2ccccc2Cl)c1)Nc1cccc2ccccc12 [Example 139, N-(2-Chloro-benzyl)-2-[3-(3-naphthalen-1-yl-ureido)-phenoxy]-nicotinamide]
Second: CC(=O)c1ccc(CNC(=O)c2cccnc2Oc2cccnc2)s1 [Example 159, N-(5-Acetyl-thiophen-2-ylmethyl)-2-(pyridin-3-yloxy)-nicotinamide]
The melting point of the first is lower: 121 to 123 °C for the first, 201 to 203 °C for the second.

Compared with `CC(O)c1ccc(CNC(=O)c2cccnc2Oc2cccnc2)s1` (centres unmarked) [Example 160, N-[5-(1-Hydroxy-ethyl)-thiophen-2-ylmethyl]-2-(pyridin-3yloxy)-nicotinamide], `CC[C@H](C)NC(=O)c1cccnc1Oc1cccnc1` [Example 176, (S)-N-sec-Butyl-2-(pyridin-3-yloxy)-nicotinamide] is lower in melting point: 92 to 94 °C for the first, 64 to 65 °C for the second.

Compared with `CCCCNC(=O)c1cccnc1Oc1cccnc1` [Example 174, N-Butyl-2-(pyridin-3-yloxy)-nicotinamide], `CCCCCNC(=O)c1cccnc1Oc1cccnc1` [Example 175, N-Pentyl-2-(pyridin-3-yloxy)-nicotinamide] is higher in melting point: 55 to 56 °C for the first, 61 to 62 °C for the second.

First: CC[C@@H](C)NC(=O)c1cccnc1Oc1cccnc1 [Example 177, (R)-N-sec-Butyl-2-(pyridin-3-yloxy)-nicotinamide]
Second: NS(=O)(=O)N1CCC(CNC(=O)c2cccnc2Oc2cccnc2)CC1 [Example 179, 2-(Pyridin-3-yloxy)-N-(1-sulfamoyl-piperidin-4-ylmethyl)-nicotinamide]
The melting point of the first is lower: 55 to 56 °C for the first, 165 to 166 °C for the second.

— patent US6380218B1, “Nicotinamide derivatives” (Pfizer Inc, priority 1997, dated 2002)
